{
  "source": "patent US20110229553A1",
  "about": "“Plant Extract with Pharmacological Profile for Treating or Preventing Diseases, Dysfunctions and Disorders of the Central Nervous System, Neurodegenerative Disorders and Sequel from Vascular Dementia” (priority 2010, published 2011)",
  "tested_on": "BALB/c mice MPTP induced tremor",
  "test": "MPTP-induced tremor in BALB/c mice",
  "type": "in vivo",
  "conditions": "extract 25 or 50 mg/kg, apomorphine 3 mg/kg",
  "description": "Animals: Male adult mice, C57BL/6 and BALB/c strain (FEEPS) were used and maintain with water and foot ad libitum under controlled environment.\nTreatments in BALB/c: MPTP (1-methyl-4-phenyl-1,2,3,6-tetrahydropyridine) 60 mg/kg (2×30 mg/kg) was administered intraperitonially (i.p.), twice, 16 h apart. Saline, DMSO 20%, Ptychopetalum olacoides extract 50 mg/kg (2×25 mg/kg), POEE 25 mg/kg (2×12.5 mg/kg) and apomorphine 3 mg/kg (2×1.5 mg/kg) were given 30 min before each MPTP administration. The animals received the first injections at 17:00 h and the second at 09:00 h the next day. The volume of injection was […] body weight. N=6.\nTremor in C57BL/6 and in BALB/c: Tremors were observed immediately after the administration of the second MPTP dose, with animals placed in a clear Plexiglas box (20 cm×20 cm×20 cm) for 45 min; tremor scores were noted every 3 min, with the highest score considered for the period. […]",
  "data": [
    {"smiles": "CN1CCc2cccc3c2[C@H]1Cc1ccc(O)c(O)c1-3", "note": "[apomorphine]", "values": [
      {"measurement": "total tremor duration", "value": "not affected"}
    ]}
  ]
}
